# Assay results published in the OligoGym collection.
# “And” between values parts separate entries of the source, which are not always exact repeats. Equal entries are not always repeated. HELM strings list units from the 5' end as sugar, base in round brackets, then linkage (d deoxyribose, r ribose, m 2'-O-methyl, p phosphodiester). Methylation of C is not given here. [moe] = 2'-O-(2-methoxyethyl) (MOE); [cEt] = constrained ethyl (cEt); [sp] = phosphorothioate linkage
# Target: HBV
# Details: ASO
Substance,"target mRNA inhibition (HepG2, 0.07 µM)",also measured
RNA1{[moe](G)[sp].[moe](A)[sp].[moe](G)[sp].[moe](G)[sp].[moe](C)[sp].[moe](A)[sp].d(T)[sp].d(A)[sp].d(G)[sp].d(C)[sp].d(A)[sp].d(G)[sp].d(C)[sp].d(A)[sp].d(G)[sp].[moe](G)[sp].[moe](A)}$$$$V2.0,61% and 45%,–
RNA1{[moe](G)[sp].[moe](A)[sp].[moe](G)[sp].[moe](G)[sp].[moe](C)[sp].d(A)[sp].d(T)[sp].d(A)[sp].d(G)[sp].d(C)[sp].d(A)[sp].d(G)[sp].d(C)[sp].d(A)[sp].[moe](G)[sp].[moe](G)[sp].[moe](A)}$$$$V2.0,47% and 43%,–
RNA1{[moe](G)[sp].[moe](A)[sp].[moe](G)[sp].[moe](G)[sp].d(T)[sp].d(G)[sp].d(A)[sp].d(A)[sp].d(G)[sp].d(C)[sp].d(G)[sp].d(A)[sp].d(A)[sp].[moe](G)[sp].[moe](T)[sp].[moe](G)}$$$$V2.0,14% and 26%,–
RNA1{[moe](G)[sp].[moe](A)[sp].[moe](G)[sp].[moe](T)[sp].d(T)[sp].d(C)[sp].d(C)[sp].d(G)[sp].d(C)[sp].d(A)[sp].d(G)[sp].d(T)[sp].d(A)[sp].[moe](T)[sp].[moe](G)[sp].[moe](G)[sp].[moe](A)}$$$$V2.0,62% and 51%,–
RNA1{[moe](G)[sp].[moe](A)[sp].[moe](G)[sp].d(A)[sp].d(A)[sp].d(G)[sp].d(T)[sp].d(C)[sp].d(C)[sp].d(A)[sp].d(C)[sp].d(C)[sp].[moe](A)[sp].[moe](C)[sp].[moe](G)[sp].[moe](A)[sp].[moe](G)}$$$$V2.0,31% and 28%,–
RNA1{[moe](G)[sp].[moe](A)[sp].[moe](G)[sp].d(G)[sp].d(C)[sp].d(A)[sp].d(T)[sp].d(A)[sp].d(G)[sp].d(C)[sp].d(A)[sp].d(G)[sp].d(C)[sp].[cEt](A)[sp].[cEt](G)[sp].[cEt](G)}$$$$V2.0,75% and 74%,–
RNA1{[moe](G)[sp].[moe](A)[sp].[moe](T)[sp].[moe](G)[sp].d(A)[sp].d(G)[sp].d(G)[sp].d(C)[sp].d(A)[sp].d(T)[sp].d(A)[sp].d(G)[sp].d(C)[sp].[moe](A)[sp].[moe](G)[sp].[moe](C)}$$$$V2.0,34% and 35%,–
RNA1{[moe](G)[sp].[moe](A)[sp].[moe](T)[sp].d(G)[sp].d(A)[sp].d(G)[sp].d(G)[sp].d(C)[sp].d(A)[sp].d(T)[sp].d(A)[sp].d(G)[sp].d(C)[sp].[cEt](A)[sp].[cEt](G)[sp].[cEt](C)}$$$$V2.0,56% and 66%,–
RNA1{[moe](G)[sp].[moe](A)[sp].d(A)[sp].d(C)[sp].d(T)[sp].d(G)[sp].d(G)[sp].d(A)[sp].d(G)[sp].d(C)[sp].d(C)[sp].[moe](A)[sp].[moe](C)[sp].[moe](C)[sp].[moe](A)[sp].[moe](G)}$$$$V2.0,40% and 18%,–
RNA1{[moe](G)[sp].[moe](A)[sp].d(A)[sp].d(G)[sp].d(C)[sp].d(G)[sp].d(A)[sp].d(A)[sp].d(G)[sp].d(T)[sp].d(G)[sp].[moe](C)[sp].[moe](A)[sp].[moe](C)[sp].[moe](A)[sp].[moe](C)}$$$$V2.0,71% and 64%,"target mRNA inhibition (HepG2, 0.0092593 µM): 9%; target mRNA inhibition (HepG2, 0.0277778 µM): 34%; target mRNA inhibition (HepG2, 0.0833333 µM): 53%; target mRNA inhibition (HepG2, 0.25 µM): 81%"
RNA1{[moe](G)[sp].[moe](A)[sp].d(G)[sp].d(G)[sp].d(T)[sp].d(G)[sp].d(A)[sp].d(A)[sp].d(G)[sp].d(C)[sp].d(G)[sp].[moe](A)[sp].[moe](A)[sp].[moe](G)[sp].[moe](T)[sp].[moe](G)[sp].[moe](C)}$$$$V2.0,67% and 63%,–
RNA1{[moe](G)[sp].[moe](A)[sp].d(G)[sp].d(T)[sp].d(T)[sp].d(C)[sp].d(C)[sp].d(G)[sp].d(C)[sp].d(A)[sp].d(G)[sp].[moe](T)[sp].[moe](A)[sp].[moe](T)[sp].[moe](G)[sp].[moe](G)}$$$$V2.0,52% and 45%,–
